Laboratory results as given in patent US20220251625A1, “NOVEL DIAGNOSTIC MARKER FOR PANCREATIC CANCER” (URTESTE S.A., priority 2019, published 2022).
Where “and” joins values, the source holds several entries; their conditions need not be identical. Equal values may be shown once. Numbered stars: 1 amine (or outer) side, 2 acyl side, 3 side chain; on linkers, the order of the positions; unused ones are H or OH. Square brackets hold non-standard residues; d marks the D form. Ends that are not written are not given here. Benzoyl(5-NH,2-NO2) = O=C(c1cc(N[*:1])ccc1[N+](=O)[O-])[*:2]; 2Abz = Nc1ccccc1C(=O)O

Assays:
Format in all cases: biochemical, human
[1] = test system: proteolytic enzymes in urine; assay: Hydrolysis of chromogenic peptide substrate in urine samples, absorbance at 405 nm; set-up: rate of hydrolysis of substrate: unit not given here; conditions: for rate of hydrolysis of substrate: triplicate, 37° C., pH 8.0, 405 nm
Procedure: Arabic numbers indicate the number of the selected urine sample. […] The result indicates the absence of proteolytic enzymes characteristic of pancreatic cancer.
Arabic numbers indicate the number of the selected urine sample. A similar result as described above for FIG. 1 is obtained.
The study on the application of new compounds was performed on a group of 10 patients diagnosed with pancreatic cancer. For this purpose, the compound with formula 2: ABZ-Thr-Thr-Ala-Arg-ANB-NH2 or formula 3: ABZ-Thr-Thr-Ala-Arg-pNA was dissolved in dimethyl sulfoxide (at a concentration of 0.5 mg/mL); 50 μL of this solution was mixed with 120 μl buffer (200 mM Tris-HCl, pH 8.0) and 80 μL of urine of a person with pancreatic cancer. The measurement was made in a 96-well plate designed for measuring absorbance, and each sample was analysed in triplicate at 37° C. The duration of the measurement was 60 minutes. During the measurement, the wavelength characteristic of the released chromophore (ANB-NH2 or pNA) was monitored at 405 nm (range 380-430 nm).
As a result of the measurement, the colour of the solution increased over time in all urine samples from patients diagnosed with pancreatic cancer. The observed absorbance increase over time was different for each of the tested samples.

[2] = test system: proteolytic enzymes in urine; assay: Degree of substrate hydrolysis versus pH of the reaction environment; set-up: degree of substrate hydrolysis: unit not given here; conditions: for degree of substrate hydrolysis: triplicate
Procedure: Tested pH values are indicated on the x-axis. The relationship between proteolytic activity and pH of reaction environment was assessed.

[3] = test system: proteolytic enzymes in urine; assay: RP HPLC analysis of substrate hydrolysis in urine of a person diagnosed with pancreatic cancer; conditions: urine from a person diagnosed with pancreatic cancer
Procedure: A: ABZ-Thr-Thr-Ala-Arg-ANB NH2 substrate in 200 mM Tris-HCl buffer, pH 8.0. B: Hydrolysis of ABZ-Thr-Thr-Ala-Arg-ANB NH2 substrate in urine of patients diagnosed with pancreatic cancer.

[4] = test system: proteolytic enzymes in urine; assay: Hydrolysis of chromogenic peptide substrate in urine samples, absorbance at 405 nm; conditions: urine samples from healthy individuals (15 samples)
[5] = urine sample 1, patient diagnosed with pancreatic cancer
[6] = urine sample 3, patient diagnosed with pancreatic cancer
[7] = urine sample 4, patient diagnosed with pancreatic cancer
[8] = urine sample 5, patient diagnosed with pancreatic cancer
[9] = urine sample 6, patient diagnosed with pancreatic cancer
[10] = urine sample 7, patient diagnosed with pancreatic cancer
[11] = urine sample 8, patient diagnosed with pancreatic cancer
[12] = urine sample 9, patient diagnosed with pancreatic cancer
[13] = urine sample 10, patient diagnosed with pancreatic cancer

Row | Substance | rate of hydrolysis of substrate [1, 5] | rate of hydrolysis of substrate [1, 6] | rate of hydrolysis of substrate [1, 7] | rate of hydrolysis of substrate [1, 8] | rate of hydrolysis of substrate [1, 9] | rate of hydrolysis of substrate [1, 10] | rate of hydrolysis of substrate [1, 11] | rate of hydrolysis of substrate [1, 12] | rate of hydrolysis of substrate [1, 13] | cleavage products by RP HPLC [3] | other results
1 | ABZ-Thr-Thr-Ala-Arg-ANB-NH2 ([2Abz]TTAR-{Benzoyl(5-NH,2-NO2)-NH2}) [chromogenic peptide; ABZ is 2-aminobenzoic acid, ANB-NH2 is amide of 5-amino-2-nitrobenzoic acid] | 0.128 and 0.152 and 0.2109 | 0.07457 and 0.07826 and 0.07178 | 0.03727 and 0.03636 and 0.03044 | 0.02734 and 0.01944 and 0.02312 | 0.04416 and 0.04476 and 0.04487 | 0.02666 and 0.02332 and 0.025 | 0.02045 and 0.02486 and 0.02345 | 0.00647 and 0.00797 and 0.00596 | 0.08668 and 0.1146 and 0.08522 | break down into the ABZ-Thr-Thr-Ala-Arg peptide fragment and chromophore | hydrolysis of the substrate / increase of colour (absorbance) over time ([1]; urine of patients diagnosed with pancreatic cancer (samples 1-10)): all samples 1-10 disintegrated; relationship between proteolytic activity and pH of reaction environment [2]: maximum activity at alkaline pH; degree of substrate hydrolysis ([2]; pH 3): 0; degree of substrate hydrolysis ([2]; pH 4): 0; degree of substrate hydrolysis ([2]; pH 5): 0; degree of substrate hydrolysis ([2]; pH 6): 0; degree of substrate hydrolysis ([2]; pH 7): 0; degree of substrate hydrolysis ([2]; pH 8): 0.07661 and 0.07534 and 0.09735; degree of substrate hydrolysis ([2]; pH 9): 0; increase in absorbance (hydrolysis of the test compound) [4]: does not lead to an increase in absorbance
2 | ABZ-Thr-Thr-Ala-Arg-pNA | 0.22 and 0.189 and 0.2109 | 0.01632 and 0.01669 and 0.01723 | 0.01727 and 0.01636 and 0.01044 | 0.05734 and 0.05944 and 0.06152 | 0.05416 and 0.05476 and 0.05487 | 0.02666 and 0.02332 and 0.025 | 0.02045 and 0.02486 and 0.02345 | 0.01947 and 0.01797 and 0.01896 | 0.1167 and 0.1146 and 0.1052 | break down into the ABZ-Thr-Thr-Ala-Arg peptide fragment and chromophore | rate of hydrolysis of substrate ([1]; urine sample 2, patient diagnosed with pancreatic cancer): 0.07457 and 0.07826 and 0.07178
